Results: US20110070552A1, “USE OF SECONDARY OPTICAL EMISSION AS A NOVEL BIOFILM TARGETING TECHNOLOGY” (NOMIR MEDICAL TECHNOLOGIES INC, priority 2003, published 2011)

Columns and labels:
Assay type in all cases: in vivo, human
[1] = system: biofilm and infection around titanium implant; assay: Treatment of infected periimplant tissue: chromophore staining plus 830 nm diode laser hot tip
Excerpt: (§1) The laser used to exemplify the invention was a 830 nm diode laser with a power output of between 800 mW-1200 mW in the Continuous Wave mode of operation, through a 600 micron silica laser delivery fiber. The live human patients (in vivo) all presented with some advanced state of periodontal or periimplant disease and/or active infection. Presented below are data for two representative patients.
Presented as a brittle diabetic with an infected titanium implant and a fistula draining the infection. Radiographic appearance detailed 8 mm of lost bone, and generalized radiolucency around the medial half of the implant. […] The area was surgically opened with a conventional trapezoidal shaped flap, and the infection and biofilm effected area was bathed in a 0.1% MB solution (sold by Vista Dental Products, Racine, Wis.) for approximately 2 minutes. The area was then irrigated with copious H2O, leaving the targeted biofilm behind, and washing away excess stain. A […] silica fiber connected to an 830 nm dental diode laser was then activated at 1200 mW and the fiber was placed in contact with biofilm and blood products and immediately carbonized. […]

[2] = system: periodontal and periimplant pockets and infections; assay: Procedure performed on 50 patients in periodontal and periimplant pockets and infections; settings: 50 patients in the last 24 months, 830 nm diode laser 800 mW-1200 mW CW, 600 micron fiber
Excerpt: as §1

[3] = system: biofilm in periodontal pocket; assay: Treatment of a recalcitrant 10 mm periodontal pocket: chromophore staining plus 830 nm diode laser hot tip; settings: one patient; for periodontal pocket probing depth: baseline 10 mm pocket, 0.1% MB solution, laser 1000 mW
Excerpt: as §1
Presented as a healthy […] with a recalcitrant 10 mm periodontal pocket on the facial aspect of the maxillary canine (tooth #6) after a regular dental cleaning and scaling. In a minimally invasive procedure, the patient was anesthetized with xylocaine, and the periodontal pocket was infused with 0.1% MB solution via a small bristled brush that easily fits into the volume of the pocket. The MB solution was left for approximately 2 minutes in the area, and then surface irrigation of H2O was applied.
A […] silica fiber connected to a 830 nm dental diode laser (sold by Lumenis Technologies, Yokneam, Israel) was then activated at 1000 mW and the fiber was placed into the periodontal pocket, where it immediately came in contact with biofilm, tissue, and blood products. The tip of the fiber immediately carbonized, and became incandescent. The fiber (with the secondary quantum emissions emanating from the carbonized tip), was then moved around the three dimensional area of the periodontal pocket for a period of 30 to 45 seconds in rapid movements, never staying in one direct area for more than 1 second at a time. The area was then scaled with traditional gracey periodontal scalers (sold by Hu-Friedy Chicago, Ill.), and then irrigated with copious water. The patient was sent home with administration of 600 mg of Ibuprophen (sold by Wyeth, Madison, N.J.) analgesic given chair-side, and no antibiotics.

Compound	infection status of periimplant area ([1]; one diabetic patient, 0.1% MB solution approx. 2 minutes, laser 1200 mW 60 to 90 seconds, scaling, 5 day Amoxicillin, three weeks post-op)	infection status of periimplant area ([1]; same patient, at 9 months)	clinical outcome [2]	state of the periodontal pocket ([3]; 0.1% MB solution approx. 2 minutes, laser 1000 mW 30 to 45 seconds, then scaling, eight days post-op)	periodontal pocket probing depth ([3]; at four months) [mm]	periodontal pocket probing depth ([3]; at six weeks) [mm]
CN(C)c1ccc2nc3ccc(=[N+](C)C)cc-3sc2c1 [Methylene Blue]	completely free of infection	still infection free	successful outcomes	completely closed	3	3
Cc1cc2nc3ccc(N(C)C)cc3[s+]c2cc1N.[Cl-] [Toludine Blue]			successful outcomes			
